Activity calls are given as the source filed them. The calls are words filed in the database; no cut-off is given here.
Tests used:
[1] = molecular target: Tankyrase 1/2 (Homo sapiens) (UniProt Q9H2K2+O95271); test: Inhibition of TNKS/TNKS2-mediated beta-catenin signaling in human COLO320DM cells assessed as down regulation of AXIN2 mRNA expression at 0.033 to 1 uM measured after 48 hrs by RT-PCR analysis; type: cell-based
[2] = molecular target: 5-hydroxytryptamine receptor 1A (Homo sapiens) (UniProt P08908); test: Displacement of [3H]8-OH-DPAT from full-length recombinant human 5HT1A receptor expressed in CHOK1 cells at 10 uM measured after 60 mins by scintillation counting method relative to control; type: cell-based
Chain of 5-hydroxytryptamine receptor 1A (Homo sapiens) (P08908 whole entry): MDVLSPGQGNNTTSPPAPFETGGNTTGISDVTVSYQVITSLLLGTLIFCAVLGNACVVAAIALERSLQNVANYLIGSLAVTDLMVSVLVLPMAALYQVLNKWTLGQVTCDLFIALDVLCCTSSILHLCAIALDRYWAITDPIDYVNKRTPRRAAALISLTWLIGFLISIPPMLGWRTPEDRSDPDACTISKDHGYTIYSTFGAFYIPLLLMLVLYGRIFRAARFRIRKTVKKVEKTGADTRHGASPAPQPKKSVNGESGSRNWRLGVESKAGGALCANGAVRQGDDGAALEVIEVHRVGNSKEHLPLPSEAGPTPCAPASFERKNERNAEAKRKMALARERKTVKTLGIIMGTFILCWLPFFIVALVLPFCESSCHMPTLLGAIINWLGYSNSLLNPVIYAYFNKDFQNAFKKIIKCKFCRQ

[3] = molecular target: Cannabinoid receptor 1 (Homo sapiens) (UniProt P21554); test: Displacement of [3H]SR141716A from full-length recombinant human CB1 receptor expressed in human Chem1 cells at 10 uM measured after 60 mins by scintillation counting method relative to control; type: cell-based
Chain of Cannabinoid receptor 1 (Homo sapiens) (P21554 whole entry): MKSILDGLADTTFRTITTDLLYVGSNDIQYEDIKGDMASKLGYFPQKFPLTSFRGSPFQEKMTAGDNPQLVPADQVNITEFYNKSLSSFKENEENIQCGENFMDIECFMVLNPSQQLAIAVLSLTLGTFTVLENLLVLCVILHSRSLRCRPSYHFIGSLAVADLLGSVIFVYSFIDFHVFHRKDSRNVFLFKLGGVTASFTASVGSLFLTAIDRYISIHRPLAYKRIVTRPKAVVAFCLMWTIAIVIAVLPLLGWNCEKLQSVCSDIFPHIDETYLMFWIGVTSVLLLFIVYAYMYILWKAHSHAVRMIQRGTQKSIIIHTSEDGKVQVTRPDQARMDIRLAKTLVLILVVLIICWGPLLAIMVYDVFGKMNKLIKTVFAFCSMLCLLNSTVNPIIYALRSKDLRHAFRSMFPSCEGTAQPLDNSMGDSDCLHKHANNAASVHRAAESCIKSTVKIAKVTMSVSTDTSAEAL

[4] = molecular target: Histamine H2 receptor (Homo sapiens) (UniProt P25021); test: Displacement of [125I]aminopotentidine from full-length recombinant human H2 receptor expressed in CHOK1 cells at 10 uM measured after 120 mins by scintillation counting method relative to control; type: cell-based
Chain of Histamine H2 receptor (Homo sapiens) (P25021 whole entry): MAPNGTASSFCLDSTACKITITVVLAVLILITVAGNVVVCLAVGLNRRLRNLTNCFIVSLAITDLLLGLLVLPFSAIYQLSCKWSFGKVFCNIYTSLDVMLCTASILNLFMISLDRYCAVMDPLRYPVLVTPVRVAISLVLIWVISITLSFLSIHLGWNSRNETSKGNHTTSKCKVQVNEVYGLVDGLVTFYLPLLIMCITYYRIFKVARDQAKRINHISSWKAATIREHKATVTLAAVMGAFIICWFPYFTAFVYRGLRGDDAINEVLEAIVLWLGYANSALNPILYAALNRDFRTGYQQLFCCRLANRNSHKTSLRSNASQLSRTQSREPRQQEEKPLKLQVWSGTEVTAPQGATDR

[5] = molecular target: Neuronal acetylcholine receptor; alpha4/beta2 (Homo sapiens) (UniProt P17787+P43681); test: Displacement of [3H]cytisine from full-length recombinant human alpha4/beta2 nACHR expressed in human SH-SY5Y cells at 10 uM measured after 120 mins by scintillation counting method relative to control; type: cell-based
COLO 320DM = test: Antiproliferative activity against human COLO320DM cells assessed inhibition of cell growth measured after 5 days by MTT assay; type: functional; conditions: 120 h
Tankyrase 1/2 = molecular target: T1, Tankyrase 1/2 (Homo sapiens, UniProt Q9H2K2+O95271); conditions: hek293
T1 sequence (Q9H2K2 whole entry): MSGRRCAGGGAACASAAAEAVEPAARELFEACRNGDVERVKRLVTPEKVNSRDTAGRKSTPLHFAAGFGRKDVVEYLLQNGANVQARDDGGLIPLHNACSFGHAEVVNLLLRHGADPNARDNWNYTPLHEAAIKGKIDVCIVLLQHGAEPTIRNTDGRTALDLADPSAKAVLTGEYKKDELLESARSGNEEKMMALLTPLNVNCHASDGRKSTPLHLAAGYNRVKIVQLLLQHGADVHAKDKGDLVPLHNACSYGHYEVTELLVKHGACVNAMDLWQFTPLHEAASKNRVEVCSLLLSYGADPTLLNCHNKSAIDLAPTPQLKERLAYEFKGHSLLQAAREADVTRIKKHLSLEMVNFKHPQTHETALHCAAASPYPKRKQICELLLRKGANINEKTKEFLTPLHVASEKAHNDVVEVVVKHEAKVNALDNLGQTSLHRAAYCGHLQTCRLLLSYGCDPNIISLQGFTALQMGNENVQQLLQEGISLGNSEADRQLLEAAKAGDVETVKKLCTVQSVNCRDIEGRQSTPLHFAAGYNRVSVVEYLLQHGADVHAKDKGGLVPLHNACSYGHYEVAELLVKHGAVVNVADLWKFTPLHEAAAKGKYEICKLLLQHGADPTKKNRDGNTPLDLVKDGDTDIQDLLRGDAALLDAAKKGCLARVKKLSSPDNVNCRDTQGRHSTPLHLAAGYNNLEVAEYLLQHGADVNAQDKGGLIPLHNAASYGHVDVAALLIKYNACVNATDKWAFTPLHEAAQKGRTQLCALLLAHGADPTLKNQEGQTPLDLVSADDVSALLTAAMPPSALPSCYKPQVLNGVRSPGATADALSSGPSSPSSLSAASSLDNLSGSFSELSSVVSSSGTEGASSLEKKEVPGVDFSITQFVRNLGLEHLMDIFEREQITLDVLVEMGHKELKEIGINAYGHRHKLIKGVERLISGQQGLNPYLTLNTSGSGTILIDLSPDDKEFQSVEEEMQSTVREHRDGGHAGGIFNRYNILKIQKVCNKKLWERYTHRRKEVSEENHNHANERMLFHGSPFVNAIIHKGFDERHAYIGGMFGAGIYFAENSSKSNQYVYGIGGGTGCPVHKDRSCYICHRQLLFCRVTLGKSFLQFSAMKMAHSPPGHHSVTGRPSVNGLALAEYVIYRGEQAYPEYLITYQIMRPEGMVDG
T1 sequence (O95271 whole entry): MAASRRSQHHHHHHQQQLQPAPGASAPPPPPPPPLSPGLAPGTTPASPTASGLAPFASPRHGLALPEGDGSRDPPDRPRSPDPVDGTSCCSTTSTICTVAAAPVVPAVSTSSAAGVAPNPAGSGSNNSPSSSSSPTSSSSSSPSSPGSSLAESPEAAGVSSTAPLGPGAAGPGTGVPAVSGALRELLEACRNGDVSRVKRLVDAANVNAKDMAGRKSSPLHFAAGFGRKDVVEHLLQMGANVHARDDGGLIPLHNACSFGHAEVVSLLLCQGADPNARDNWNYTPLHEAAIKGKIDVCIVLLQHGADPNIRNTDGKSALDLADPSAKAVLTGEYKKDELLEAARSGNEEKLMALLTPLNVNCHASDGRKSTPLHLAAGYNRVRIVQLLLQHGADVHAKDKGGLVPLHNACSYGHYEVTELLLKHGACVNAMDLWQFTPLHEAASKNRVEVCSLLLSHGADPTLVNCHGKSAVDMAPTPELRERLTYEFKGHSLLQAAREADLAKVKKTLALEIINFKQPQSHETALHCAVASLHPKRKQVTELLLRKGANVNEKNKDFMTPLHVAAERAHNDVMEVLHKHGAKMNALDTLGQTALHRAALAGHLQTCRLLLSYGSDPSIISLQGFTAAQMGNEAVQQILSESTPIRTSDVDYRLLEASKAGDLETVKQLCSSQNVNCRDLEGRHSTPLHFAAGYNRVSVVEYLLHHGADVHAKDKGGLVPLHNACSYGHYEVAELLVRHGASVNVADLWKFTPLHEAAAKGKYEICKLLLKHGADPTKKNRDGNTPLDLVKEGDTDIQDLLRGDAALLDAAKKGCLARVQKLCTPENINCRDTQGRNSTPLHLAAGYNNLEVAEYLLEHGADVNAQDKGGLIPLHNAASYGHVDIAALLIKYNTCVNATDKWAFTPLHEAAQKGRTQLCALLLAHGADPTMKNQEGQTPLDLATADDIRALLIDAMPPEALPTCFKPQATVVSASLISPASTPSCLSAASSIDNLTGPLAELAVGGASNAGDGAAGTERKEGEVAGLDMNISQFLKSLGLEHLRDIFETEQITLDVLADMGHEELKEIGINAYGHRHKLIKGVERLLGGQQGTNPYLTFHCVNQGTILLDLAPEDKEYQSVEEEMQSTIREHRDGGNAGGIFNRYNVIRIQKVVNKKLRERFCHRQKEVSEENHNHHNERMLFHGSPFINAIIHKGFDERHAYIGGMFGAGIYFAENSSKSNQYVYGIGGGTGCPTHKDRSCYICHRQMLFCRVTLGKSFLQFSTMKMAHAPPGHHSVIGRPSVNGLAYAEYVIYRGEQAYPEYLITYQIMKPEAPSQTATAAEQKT
Description: Inhibition of TNKS/TNKS2 (unknown origin) expressed in HEK293 cells assessed as reduction in Wnt-signaling measured after 24 hrs by TCF-luciferase reporter gene assay

GI50 (COLO 320DM) [µM] | IC50 (Tankyrase 1/2) [µM] | SMILES | inhibition [1] | inhibition [2] [%] | inhibition [3] [%] | inhibition [4] [%] | inhibition [5] [%]
– | – | O=c1[nH]c(N2CCC3(CC2)CN(CCO)c2cc(F)cc(F)c23)nc2c1CCCC2 | Active | > 20 | > 20 | > 20 | > 20
1.82 | 0.0429 | COc1ccccc1N1CCN(c2nc3c(c(=O)[nH]2)CCCC3)CC1 | – | – | – | – | –

Reference: ChEMBL document CHEMBL4387706, “Discovery of Novel Spiroindoline Derivatives as Selective Tankyrase Inhibitors” (J Med Chem, 2019)
